These results are taken from patent US8173711B2, “Agent for relief or prevention of xerostomia” (Kaneka Corporation, priority 2007, dated 2012).

Marks after values point to notes of the source that are not given here.

Series [1] concerns xerostomia (dry mouth) outpatients. Description: Saxon test, amount of secreted saliva, coenzyme Q10 capsule intake in patients with xerostomia. Conditions: for Amount of secreted saliva, Increased amount: difference after minus before one-month intake; for Amount of secreted saliva, After intake / Amount of secreted saliva, Before intake: group average; for Amount of secreted saliva, After intake: after one 100 mg capsule every day for one month; for Amount of secreted saliva, Before intake: before intake of one 100 mg capsule every day for one month. It counts as in vivo, human. The method, then: A test subject chews a piece of gauze for 2 minutes. The weight of the gauze piece has been measured in advance. After the 2-minute chewing, the weight of the gauze is measured. An amount of secreted saliva is calculated as a difference between the weights of the gauze piece before and after the 2-minute chewing.
In total 23 xerostomia (dry mouth) outpatients (23 females including 21 Sjogren syndrome patients) were divided into three groups. To one group consisting of 9 patients, one oxidized coenzyme Q10-containing capsule having the composition illustrated in Table 1 (Test food 1, 240 mg per capsule) was administered every day for one month. To another group consisting of another 9 patients, one reduced coenzyme Q10-containing capsule having the composition shown in Table 1 (Test food 2, 240 mg per capsule) was administered every day for one month. The amount of secreted saliva was measured for each group before and after the intake. To the other group consisting of remaining 5 patients, one placebo capsule (Control food, 240 mg per capsule) was administered every day for one month. The amount of secreted saliva was similarly measured before and after the intake.
(§1) The amount of secreted saliva was measured by Saxon test. Namely, a test subject chewed a piece of gauze for 2 minutes. The weight of the gauze piece had been measured in advance. After the 2-minute chewing, the weight of the gauze piece was measured. The amount of secreted saliva was calculated as a difference between the weights of the gauze piece before and after the 2-minute chewing. In the present example, those whose amount of secreted saliva measured by Saxon test was 2.0 g/2 min. or less were determined as xerostomia patients, and those whose amount of secreted saliva was more than that were determined as healthy persons. Tables 2 and 3 illustrate the average values of all subjects of each group.

Another series relates to healthy persons. Description: Saxon test, amount of secreted saliva, coenzyme Q10 capsule intake in healthy persons. The format is in vivo, human. The note with it: for Amount of secreted saliva, Increased amount: difference after minus before one-month intake; for Amount of secreted saliva, After intake / Amount of secreted saliva, Before intake: group average; for Amount of secreted saliva, After intake: after one 100 mg capsule every day for one month; for Amount of secreted saliva, Before intake: before intake of one 100 mg capsule every day for one month; for Significant or excessive increase of secreted saliva before versus after intake: one capsule every day for one month. Here is the method: as §1
In total, 57 healthy persons (12 males, 45 females) were collected as volunteers. One oxidized coenzyme Q10-containing capsule having the composition illustrated in Table 1 (Test food 1, 240 mg per capsule) was administered every day for one month to a group consisting of 22 healthy persons (5 males, 17 females), and one reduced coenzyme Q10-containing capsule having the composition illustrated in Table 1 (Test food 2, 240 mg per capsule) was administered every day for one month to another group consisting of 22 healthy persons (5 males, 17 females). The amount of secreted saliva was measured for each group before and after the intake by the same procedure as that in Example 1. To remaining 13 healthy persons (2 males, 11 females), one placebo capsule (Control food, 240 mg per capsule) was administered every day for one month. The amount of secreted saliva was measured before and after the intake.

A further series relates to rats. Conditions: 52 consecutive weeks, 1.2 g/kg/day; cited from earlier work.
Series [2] deals with Parkinson's disease model mice. Conditions: Non-Patent Document 2; cited from earlier work.

As to `COc1c(O)c(C)c(C/C=C(\C)CC/C=C(\C)CC/C=C(\C)CC/C=C(\C)CC/C=C(\C)CC/C=C(\C)CC/C=C(\C)CC/C=C(\C)CC/C=C(\C)CCC=C(C)C)c(O)c1OC` [Reduced coenzyme Q10], in series [1], the “Amount of secreted saliva, Increased amount” value (shortened to “Amount … Increased amount”) was 0.70 g/2 min; the “Amount of secreted saliva, After intake” value was 1.52* g/2 min; the “Amount of secreted saliva, Before intake” value worked out at 0.82 g/2 min. Besides, in series [1] (listed as reduced coenzyme Q10), the “Amount … Increased amount” value is on record as 0.7 g/2 min and the “Amount of secreted saliva, After intake” value was 1.52 g/2 min. Besides, the “Comparison of salivary secretion-increasing effect” value in series [1] (reduced versus oxidized coenzyme Q10 capsule) is on record as “higher effects than oxidized coenzyme Q10”. Further, in the series on healthy persons, the “Amount … Increased amount” value is listed as 0.10 g/2 min; the “Amount of secreted saliva, After intake” value is given as 3.54 g/2 min; the “Amount of secreted saliva, Before intake” value stood at 3.44 g/2 min; the “Significant or excessive increase of secreted saliva before versus after intake” value was “None of the oxidized coenzyme Q10 capsule administration group, the reduced coenzyme Q10 capsule administration group and the placebo capsule administration group showed a significant or excessive increase”.
`COC1=C(OC)C(=O)C(C/C=C(\C)CC/C=C(\C)CC/C=C(\C)CC/C=C(\C)CC/C=C(\C)CC/C=C(\C)CC/C=C(\C)CC/C=C(\C)CC/C=C(\C)CCC=C(C)C)=C(C)C1=O` [Oxidized coenzyme Q10]: in series [1], the “Amount … Increased amount” value turned out to be 0.59 g/2 min; the “Amount of secreted saliva, After intake” value is recorded as 1.28* g/2 min; the “Amount of secreted saliva, Before intake” value is recorded as 0.69 g/2 min. For the same compound, the “Amount of secreted saliva, After intake” value in series [1] (listed as oxidized coenzyme Q10) turned out to be 1.28 g/2 min. Further, in the series with healthy persons, the “Amount … Increased amount” value is recorded as 0.43 g/2 min; the “Amount of secreted saliva, After intake” value was 6.16 g/2 min; the “Amount of secreted saliva, Before intake” value is 5.73 g/2 min; the “Significant or excessive increase of secreted saliva before versus after intake” value is “None of the oxidized coenzyme Q10 capsule administration group, the reduced coenzyme Q10 capsule administration group and the placebo capsule administration group showed a significant or excessive increase”.
ubiquinone [Oxidized coenzyme Q]: the Toxicity result with rats is on record as “no evidence of toxicity”. In addition, the “Effect on conditions of Parkinson's disease model mice” value in series [2] is recorded as “effects to improve conditions”.
